We go through 1 molecule from patent US20260102407A1, “TREATMENT METHODS” (priority 2020, published 2026).

In one assay the test system is Balb/c mice. Kind of assay: Collagen antibody-induced arthritis (footpad thickness, H&E, micro-CT, TRAP). The assay is classed as in vivo, mouse. To be noted: CAIA mice. As to the method: (§1) Collagen antibody-induced arthritis. Arthritis was induced in female Balb/c mice (6-8 week-old) as previously described with a commercially obtained cocktail of 5 monoclonal antibodies to type II collagen at 2 mg/mouse (Chondrex, Inc. Redmond, WA) followed by LPS (50 μg/mouse) with or without BT2 (3 or 30 mg/kg mouse) in DMSO vehicle was administered i.p. on Day 3. Hind footpad thickness was measured on Day 9 using digital calipers. Mice were sacrificed on Day 14 and microCT scanning of hind limbs was performed.
Micro-CT scanning and analysis. Formalin-ethanol fixed hind limbs were micro-CT scanned prior to histology processing using a Siemens Inveon micro-CT scanner (Victoria, Australia). Data was acquired with the Inveon Acquisition Workplace at 16.84 μm pixel size, 360 projections, 4100 ms integration time, 80 keV photon energy and 140 μA current. 3D models were visualized and snap shots of the limbs acquired with the Inveon Research Workplace software. Data was quantified by binary score where 0=no bone destruction and 1=destruction was given to each individual limb.
Tartrate-resistant acid phosphatase (TRAP) staining. Osteoclasts were stained using TRAP kit (Cosmo Bio, Japan, cat. PMC-AK04F-COS). Sections were heated at 65° C. for 1 h prior dewaxing. Tissue sections were deparaffinised with 100% xylene and rehydrated with 100, 70 and 30% ethanol and rinsed with distilled water for 5 min. Sections were covered with TRAP staining solution containing 3 mg tartaric acid per 50 ml tartaric acid buffer. The sections were incubated at 37° C. for 1 h, then rinsed in distilled water 3 times to halt the reaction. Sections were counterstained with hematoxylin for 5s then washed in running water until clear then dried. Sections were dehydrated with xylene and air-dried then mounted with aqueous permanent mounting medium. Within the synovium on the medial aspect of each animal joint, 6 random areas photographed under 20× objective were selected in the blinded fashion. Numbers of osteoclasts were counted using NIH Image J. Alternatively TRAP staining was quantitated using IOD (Image-Pro Plus).

The test system of a further assay is VCAM-1. Kind of assay: Flow cytometry of VCAM-1 on IL-1β-treated HMEC-1. The assay is classed as cell-based, human. The settings on record: 30 μM, 20 ng/ml IL-1β 4 h. As to the method:
Flow cytometry. HMEC-1 (at 80-90% confluency) were arrested in serum-free MCDB131 medium without EGF or hydrocortisone for 40 h, treated with 30 μM BT2 or BT3 for 4 h. The cells were incubated in serum-free medium and exposed to 20 ng/ml IL-1β with the same concentration of BT2 or BT3 for a further 4 h. The cells were washed with PBS then detached with Accutase (Stem Cell Technologies, cat. 07920). The cells were centrifuged at 300 g for 5 min and resuspended at 5×10^6 cells/ml containing BT2 or BT3. The cells were incubated with BV421-conjugated mouse anti-human CD106 (VCAM-1) (BD, cat. 744309) or BV421-conjugated mouse IgG1 (BD, cat. 562438) for 45 min at 22° C. The cells were washed with Stain Buffer and the pellet was resuspended in 0.5 ml of 1% paraformaldehyde prior to flow cytometry BD FACSCanto II.
VCAM-1^+ and VCAM-1^− cells were gated by performing flow cytometry with or without primary VCAM-1 antibody (non-specific staining), respectively. […] The gating strategy is based on fluorescence excitation off both the 488 nm laser and 405 nm laser with emission filters 670LP off 488 nm and 450/50 off 405 nm. Cells with autofluorescence or negative (blue population) had equal proportion of fluorescence in both channels and VCAM-1 positive cells (red) emit light in the 450/50 filter.
(In general: Flow cytometry measures light scatter and fluorescence of single cells or particles in a stream.)

The test system of a further assay is ICAM-1. Kind of assay: Collagen antibody-induced arthritis, hind limb immunohistochemistry for ICAM-1. In kind it is in vivo, mouse. The settings on record: CAIA mice; Day 14 hind limbs. As to the method:
as §1
Immmunohistochemical staining of hind limbs for VCAM-1 and ICAM-1 and analysis. Formalin-fixed, paraffin embedded of hind limbs were sectioned (5 μm). Dako EnVision Rabbit Kit (cat. K4011, Dako) was used for immmunohistochemical staining for VCAM-1 and ICAM-1. […] Integrated optical density (IOD) of positive staining in ankle joint (tibia and talus) articular cartilage was assessed for VCAM-1 and ICAM-1 using Image-Pro Plus software (Cybernetics, Bethesda, MD, USA). Area (μm^2) of ankle joint articular cartilage was measured using Image-Pro Plus software. Total cell number and positive staining cell number in ankle joint articular cartilage were counted manually using Image-Pro Plus software. […]

Structures are written as SMILES.

As for `CCOC(=O)Nc1ccc2c(c1)C(=O)N(CC)c1ccccc1O2` [BT2, (10-ethyl-11-oxo-10,11-dihydro-dibenzo[b,f][1,4]oxazepin-2-yl)-carbamic acid ethyl ester], in the assay on Balb/c mice (Day 14), the “TRAP staining in the joints” value is recorded as “reduced TRAP staining”, the “bone destruction (3D micro-CT of hind limbs)” value is listed as “inhibits bone destruction” and the “inflammation (H&E staining)” value was “reduced by BT2”. Further, the hind footpad thickness entry in the assay with Balb/c mice (single administration 30 mg/kg i.p. Day 3, Day 9) is “inhibited”. In addition, the “VCAM-1 expression by flow cytometry” value in the assay on VCAM-1 is reported as “inhibition of VCAM-1”. Besides, the “ICAM-1 expression in bone” value in the assay on ICAM-1 was “inhibit VCAM-1 and ICAM-1 expression”.
